Reference: ChEMBL document CHEMBL3885881, “DrugMatrix”
Several values for one entry are separate records, joined by “and”; a condition that tells them apart may be missing. Equal values may be shown once.

Species on record: Rattus norvegicus
Assay: DrugMatrix - Regimen: Daily Repeat
Format: toxicity, organism-based, Sprague-Dawley
Set-up: regimen Daily Repeat, gender Male, age 6-8 weeks
Conditions: in vivo, ip, route intraperitoneal, vehicle 100 % SALINE; for ABSOLUTE BASOPHIL / ABSOLUTE EOSINOPHIL / ABSOLUTE LYMPHOCYTE / ABSOLUTE MONOCYTE / ABSOLUTE SEGMENTED NEUTROPHIL / BASOPHIL / EOSINOPHIL / ERYTHROCYTE COUNT / HEMATOCRIT / HEMOGLOBIN / LEUKOCYTE COUNT / LYMPHOCYTE / MEAN CORPUSCULAR HEMOGLOBIN / MEAN CORPUSCULAR HEMOGLOBIN CONCENTRATION / MEAN CORPUSCULAR VOLUME / MONOCYTE / NEUTROPHIL / PLATELET COUNT: tissue Blood; for ALANINE AMINOTRANSFERASE / ALBUMIN / ALKALINE PHOSPHATASE / ASPARTATE AMINOTRANSFERASE / BLOOD UREA NITROGEN / CARBON DIOXIDE / CHLORIDE / CHOLESTEROL / CREATINE PHOSPHOKINASE / CREATININE / GLUCOSE / LACTATE DEHYDROGENASE / LIPASE / PHOSPHORUS / POTASSIUM / SODIUM / TOTAL BILIRUBIN / TOTAL PROTEIN / URIC ACID: tissue Plasma
[1] = 0 mg/kg, 120 h, dose level Control, time 5 day
[2] = 0 mg/kg, […], dose level Control, time 14 day
[3] = 0 mg/kg, […], dose level Control, time 28 day
[4] = 40 mg/kg, 120 h, dose level High, time 5 day
[5] = 40 mg/kg, […], dose level High, time 14 day
[6] = 40 mg/kg, […], dose level High, time 28 day

NC[C@H]1O[C@H](O[C@H]2[C@H](O)[C@@H](O[C@H]3O[C@H](CO)[C@@H](O)[C@H](N)[C@H]3O)[C@H](N)C[C@@H]2N)[C@H](N)C[C@@H]1O [TOBRAMYCIN]
ABSOLUTE BASOPHIL [1]: 32 cells/µL
ABSOLUTE EOSINOPHIL [1]: 110 cells/µL
ABSOLUTE LYMPHOCYTE [1]: 6630 cells/µL
ABSOLUTE MONOCYTE [1]: 140 cells/µL
ABSOLUTE SEGMENTED NEUTROPHIL [1]: 1170 cells/µL
BASOPHIL [1]: 0.38% and 0.35%
EOSINOPHIL [1]: 1.28% and 0.62%
ERYTHROCYTE COUNT [1]: 7.45 x10E6/uL and 7.26 x10E6/uL
HEMATOCRIT [1]: 45.74% and 47.97%
HEMOGLOBIN [1]: 14.72 G/DL and 15.38 G/DL
LEUKOCYTE COUNT [1]: 8.11 x10E3/uL and 8.68 x10E3/uL
LYMPHOCYTE [1]: 81.3% and 86.77%
MEAN CORPUSCULAR HEMOGLOBIN [1]: 19.76 pg and 21.18 pg
MEAN CORPUSCULAR HEMOGLOBIN CONCENTRATION [1]: 32.16 G/DL and 32.05 G/DL
MEAN CORPUSCULAR VOLUME [1]: 61.38 fL and 66.15 fL
MONOCYTE [1]: 1.76% and 1.57%
NEUTROPHIL [1]: 14.9% and 9.53%
PLATELET COUNT [1]: 1322.4 x10E3/uL and 1786 x10E3/uL
ALANINE AMINOTRANSFERASE [1]: 25.8 u/L and 20.5 u/L
ALBUMIN [1]: 3.64 G/DL and 4.35 G/DL
ALKALINE PHOSPHATASE [1]: 233.6 u/L and 300 u/L
ASPARTATE AMINOTRANSFERASE [1]: 81.4 u/L and 86.75 u/L
BLOOD UREA NITROGEN [1]: 14.4 mg/dL and 17 mg/dL
CARBON DIOXIDE [1]: 29 mmol/L
CHLORIDE [1]: 105.6 MEQ/L and 106.25 MEQ/L
CHOLESTEROL [1]: 69.2 mg/dL and 51.25 mg/dL
CREATINE PHOSPHOKINASE [1]: 384.75 u/L
CREATININE [1]: 0.56 mg/dL and 0.47 mg/dL
GLUCOSE [1]: 125.4 mg/dL and 128.75 mg/dL
LACTATE DEHYDROGENASE [1]: 105.4 u/L and 145 u/L
LIPASE [1]: 22.4 u/L and 13.25 u/L
PHOSPHORUS [1]: 11.48 mg/dL and 11.8 mg/dL
POTASSIUM [1]: 5.52 MEQ/L and 6.58 MEQ/L
SODIUM [1]: 147 MEQ/L and 151 MEQ/L
TOTAL BILIRUBIN [1]: 0.2 mg/dL and 0.33 mg/dL
TOTAL PROTEIN [1]: 6.1 G/DL and 6.53 G/DL
URIC ACID [1]: 1.06 mg/dL and 1.95 mg/dL
ABSOLUTE BASOPHIL [2]: 130 cells/µL
ABSOLUTE EOSINOPHIL [2]: 140 cells/µL
ABSOLUTE LYMPHOCYTE [2]: 13500 cells/µL
ABSOLUTE MONOCYTE [2]: 400 cells/µL
ABSOLUTE SEGMENTED NEUTROPHIL [2]: 2330 cells/µL
HEMATOCRIT [2]: 45.98%
ABSOLUTE BASOPHIL [3]: 91 cells/µL
ABSOLUTE EOSINOPHIL [3]: 110 cells/µL
ABSOLUTE LYMPHOCYTE [3]: 9910 cells/µL
ABSOLUTE MONOCYTE [3]: 210 cells/µL
ABSOLUTE SEGMENTED NEUTROPHIL [3]: 1560 cells/µL
BASOPHIL [3]: 0.77%
EOSINOPHIL [3]: 0.92%
ERYTHROCYTE COUNT [3]: 8.21 x10E6/uL
HEMATOCRIT [3]: 47.53%
HEMOGLOBIN [3]: 15.65 G/DL
LEUKOCYTE COUNT [3]: 11.91 x10E3/uL
LYMPHOCYTE [3]: 83.34%
MEAN CORPUSCULAR HEMOGLOBIN [3]: 19.07 pg
MEAN CORPUSCULAR HEMOGLOBIN CONCENTRATION [3]: 32.93 G/DL
MEAN CORPUSCULAR VOLUME [3]: 57.9 fL
MONOCYTE [3]: 1.68%
NEUTROPHIL [3]: 12.97%
PLATELET COUNT [3]: 1323.8 x10E3/uL
CARBON DIOXIDE [2]: 25 mmol/L
ALANINE AMINOTRANSFERASE [3]: 30 u/L
ALBUMIN [3]: 3.71 G/DL
ALKALINE PHOSPHATASE [3]: 186.8 u/L
ASPARTATE AMINOTRANSFERASE [3]: 78.2 u/L
BLOOD UREA NITROGEN [3]: 14.2 mg/dL
CHLORIDE [3]: 105.4 MEQ/L
CHOLESTEROL [3]: 44.9 mg/dL
CREATINE PHOSPHOKINASE [3]: 334.3 u/L
CREATININE [3]: 0.6 mg/dL
GLUCOSE [3]: 147.2 mg/dL
LACTATE DEHYDROGENASE [3]: 123.1 u/L
LIPASE [3]: 9.6 u/L
PHOSPHORUS [3]: 10.01 mg/dL
POTASSIUM [3]: 6.57 MEQ/L
SODIUM [3]: 149.5 MEQ/L
TOTAL BILIRUBIN [3]: 0.21 mg/dL
TOTAL PROTEIN [3]: 6.66 G/DL
URIC ACID [3]: 1.26 mg/dL
ABSOLUTE BASOPHIL [4]: 78 cells/µL
ABSOLUTE EOSINOPHIL [4]: 120 cells/µL
ABSOLUTE LYMPHOCYTE [4]: 8040 cells/µL
ABSOLUTE MONOCYTE [4]: 210 cells/µL
ABSOLUTE SEGMENTED NEUTROPHIL [4]: 920 cells/µL
BASOPHIL [4]: 0.78% and 0.42%
EOSINOPHIL [4]: 1.32% and 0.7%
ERYTHROCYTE COUNT [4]: 7.61 x10E6/uL and 7.29 x10E6/uL
HEMATOCRIT [4]: 45.66% and 46.27%
HEMOGLOBIN [4]: 15.22 G/DL and 14.92 G/DL
LEUKOCYTE COUNT [4]: 9.41 x10E3/uL and 6.74 x10E3/uL
LYMPHOCYTE [4]: 84.78% and 87.65%
MEAN CORPUSCULAR HEMOGLOBIN [4]: 20.04 pg and 20.48 pg
MEAN CORPUSCULAR HEMOGLOBIN CONCENTRATION [4]: 33.38 G/DL and 32.25 G/DL
MEAN CORPUSCULAR VOLUME [4]: 60.02 fL and 63.45 fL
MONOCYTE [4]: 2.34% and 1.52%
NEUTROPHIL [4]: 10.36% and 8.62%
PLATELET COUNT [4]: 1436.6 x10E3/uL and 1523 x10E3/uL
ALANINE AMINOTRANSFERASE [4]: 32.4 u/L and 20.5 u/L
ALBUMIN [4]: 3.42 G/DL and 4.17 G/DL
ALKALINE PHOSPHATASE [4]: 217.6 u/L and 314.25 u/L
ASPARTATE AMINOTRANSFERASE [4]: 80.2 u/L and 91.75 u/L
BLOOD UREA NITROGEN [4]: 14.8 mg/dL and 15.25 mg/dL
CARBON DIOXIDE [4]: 25.75 mmol/L
CHLORIDE [4]: 109.8 MEQ/L and 108.25 MEQ/L
CHOLESTEROL [4]: 58.4 mg/dL and 56 mg/dL
CREATINE PHOSPHOKINASE [4]: 257.6 u/L and 601.5 u/L
CREATININE [4]: 0.52 mg/dL and 0.5 mg/dL
GLUCOSE [4]: 127.2 mg/dL and 121.75 mg/dL
LACTATE DEHYDROGENASE [4]: 84.6 u/L and 185.75 u/L
LIPASE [4]: 17 u/L and 8.25 u/L
PHOSPHORUS [4]: 10.22 mg/dL and 12.03 mg/dL
POTASSIUM [4]: 6.26 MEQ/L and 5.68 MEQ/L
SODIUM [4]: 151.2 MEQ/L and 152 MEQ/L
TOTAL BILIRUBIN [4]: 0.14 mg/dL and 0.3 mg/dL
TOTAL PROTEIN [4]: 5.84 G/DL and 6.38 G/DL
URIC ACID [4]: 0.98 mg/dL and 1.82 mg/dL
ABSOLUTE BASOPHIL [5]: 120 cells/µL
ABSOLUTE EOSINOPHIL [5]: 60 cells/µL
ABSOLUTE LYMPHOCYTE [5]: 7970 cells/µL
ABSOLUTE MONOCYTE [5]: 180 cells/µL
ABSOLUTE SEGMENTED NEUTROPHIL [5]: 970 cells/µL
ABSOLUTE BASOPHIL [6]: 110 cells/µL
ABSOLUTE EOSINOPHIL [6]: 140 cells/µL
ABSOLUTE LYMPHOCYTE [6]: 11000 cells/µL
ABSOLUTE MONOCYTE [6]: 270 cells/µL
ABSOLUTE SEGMENTED NEUTROPHIL [6]: 2010 cells/µL
BASOPHIL [6]: 0.75%
EOSINOPHIL [6]: 1.01%
ERYTHROCYTE COUNT [6]: 8.16 x10E6/uL
HEMATOCRIT [6]: 47.35%
HEMOGLOBIN [6]: 15.56 G/DL
LEUKOCYTE COUNT [6]: 13.61 x10E3/uL
LYMPHOCYTE [6]: 82.08%
MEAN CORPUSCULAR HEMOGLOBIN [6]: 19.08 pg
MEAN CORPUSCULAR HEMOGLOBIN CONCENTRATION [6]: 32.87 G/DL
MEAN CORPUSCULAR VOLUME [6]: 58.02 fL
MONOCYTE [6]: 1.93%
NEUTROPHIL [6]: 13.77%
PLATELET COUNT [6]: 1300.9 x10E3/uL
CARBON DIOXIDE [5]: 24 mmol/L
ALANINE AMINOTRANSFERASE [6]: 28.5 u/L
ALBUMIN [6]: 3.56 G/DL
ALKALINE PHOSPHATASE [6]: 137.2 u/L
ASPARTATE AMINOTRANSFERASE [6]: 79.3 u/L
BLOOD UREA NITROGEN [6]: 16.3 mg/dL
CHLORIDE [6]: 108.2 MEQ/L
CHOLESTEROL [6]: 59.4 mg/dL
CREATINE PHOSPHOKINASE [6]: 132.4 u/L
CREATININE [6]: 0.68 mg/dL
GLUCOSE [6]: 127.2 mg/dL
LACTATE DEHYDROGENASE [6]: 83.6 u/L
LIPASE [6]: 12.4 u/L
PHOSPHORUS [6]: 8.3 mg/dL
POTASSIUM [6]: 5.48 MEQ/L
SODIUM [6]: 152.3 MEQ/L
TOTAL BILIRUBIN [6]: 0.18 mg/dL
TOTAL PROTEIN [6]: 6.53 G/DL
URIC ACID [6]: 0.96 mg/dL
